From PubChem BioAssay AID256 (DTP/NCI, 2004)
Values joined by “and” are separate entries in the source; they are usually repeats but may differ in a detail not shown here. Identical values can stand only once. Toxic doses and inconclusive results are not listed.

Test system: CD2F1 mice, L1210 leukemia ip, survival T/C
Assay: NCI In Vivo Anticancer Drug Screen. Data for tumor model L1210 Leukemia (intraperitoneal) in CD2F1 (CDF1) mice
Conditions: endpoint: mean survival time, higher = longer survival
In short: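 Mice carrying a transplanted tumor received test compound or vehicle alone. The value is the measurement in the treated group divided by that in the vehicle-treated control group.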

[1] = dose: 25.0 mg/kg/injection, schedule: Q04DX003 (ip), vehicle: saline
[2] = dose: 32.0 mg/kg/injection, schedule: Q01DX009 (ip), vehicle: saline
[3] = dose: 50.0 mg/kg/injection, schedule: Q04DX003 (ip), vehicle: saline
[4] = dose: 64.0 mg/kg/injection, schedule: Q01DX009 (ip), vehicle: saline
[5] = dose: 100.0 mg/kg/injection, schedule: Q04DX003 (ip), vehicle: saline
[6] = dose: 100.0 mg/kg/injection, schedule: Q01DX001 (ip), vehicle: saline with Tween-80
[7] = dose: 200.0 mg/kg/injection, schedule: Q01DX001 (ip), vehicle: saline with Tween-80
[8] = dose: 100.0 mg/kg/injection, schedule: Q01DX009 (ip), vehicle: saline with Tween-80
[9] = dose: 100.0 mg/kg/injection, schedule: Q04DX003 (ip), vehicle: saline with Tween-80
[10] = dose: 200.0 mg/kg/injection, schedule: Q01DX009 (ip), vehicle: saline with Tween-80
[11] = dose: 400.0 mg/kg/injection, schedule: Q01DX009 (ip), vehicle: saline with Tween-80

In the case of `O=C(CCBr)N1CCN(C(=O)CCBr)CC1`, the T/C (dose: 4.0 mg/kg/injection, schedule: Q03HX016 (ip), vehicle: saline) was 100 % of control, the T/C (dose: 4.0 mg/kg/injection, schedule: Q03HX024 (ip), vehicle: saline) was 100 % of control and the T/C (dose: 8.0 mg/kg/injection, schedule: Q03HX016 (ip), vehicle: saline) was 101 % of control. For the same compound, the T/C (dose: 8.0 mg/kg/injection, schedule: Q03HX016 (oral), vehicle: saline) was 93 % of control, the T/C (dose: 8.0 mg/kg/injection, schedule: Q03HX024 (ip), vehicle: saline) was 110 % of control and the T/C (dose: 8.0 mg/kg/injection, schedule: Q03HX024 (oral), vehicle: saline) was 119 % of control. The T/C (dose: 16.0 mg/kg/injection, schedule: Q03HX008 (ip), vehicle: saline) was 120 % of control, the T/C (dose: 16.0 mg/kg/injection, schedule: Q03HX008 (oral), vehicle: saline) was 124 % of control and the T/C (dose: 16.0 mg/kg/injection, schedule: Q03HX016 (ip), vehicle: saline) was 117 % of control. The T/C (dose: 16.0 mg/kg/injection, schedule: Q03HX016 (oral), vehicle: saline) was 100 % of control, the T/C (dose: 16.0 mg/kg/injection, schedule: Q03HX024 (ip), vehicle: saline) was 172 % of control and the T/C (dose: 16.0 mg/kg/injection, schedule: Q03HX024 (oral), vehicle: saline) was 123 % of control. For the same compound, the T/C (dose: 25.0 mg/kg/injection, schedule: Q01DX009 (ip), vehicle: saline) was 124 % of control, the T/C (dose: 25.0 mg/kg/injection, schedule: Q03DX003 (ip), vehicle: saline) was 115 % of control and the T/C [1] was 108 % of control. The T/C [2] was 161 % of control, the T/C (dose: 32.0 mg/kg/injection, schedule: Q01DX009 (oral), vehicle: saline) was 150 % of control and the T/C (dose: 32.0 mg/kg/injection, schedule: Q03HX008 (ip), vehicle: saline) was 160 % of control. For the same compound, the T/C (dose: 32.0 mg/kg/injection, schedule: Q03HX008 (oral), vehicle: saline) was 151 % of control, the T/C (dose: 32.0 mg/kg/injection, schedule: Q03HX016 (ip), vehicle: saline) was 207 % of control and the T/C (dose: 32.0 mg/kg/injection, schedule: Q03HX016 (oral), vehicle: saline) was 162 % of control. For the same compound, the T/C (dose: 32.0 mg/kg/injection, schedule: Q03HX024 (ip), vehicle: saline) was 101 % of control, the T/C (dose: 32.0 mg/kg/injection, schedule: Q03HX024 (oral), vehicle: saline) was 94 % of control and the T/C (dose: 32.0 mg/kg/injection, schedule: Q04DX003 (ip), vehicle: saline) was 118 % of control. The T/C (dose: 32.0 mg/kg/injection, schedule: Q08DX002 (ip), vehicle: saline) was 98 % of control, the T/C (dose: 50.0 mg/kg/injection, schedule: Q03DX003 (ip), vehicle: saline) was 124 % of control and the T/C [3] was 123 % of control. The T/C [4] was 156 % of control, the T/C (dose: 64.0 mg/kg/injection, schedule: Q01DX009 (oral), vehicle: saline) was 122 % of control and the T/C (dose: 64.0 mg/kg/injection, schedule: Q04DX003 (ip), vehicle: saline) was 162 % of control. For the same compound, the T/C (dose: 64.0 mg/kg/injection, schedule: Q08DX002 (ip), vehicle: saline) was 115 % of control, the T/C (dose: 64.0 mg/kg/injection, schedule: Q08DX002 (oral), vehicle: saline) was 109 % of control and the T/C (dose: 100.0 mg/kg/injection, schedule: Q01DX007 (ip), vehicle: saline) was 120 % of control. For the same compound, the T/C (dose: 100.0 mg/kg/injection, schedule: Q03DX003 (ip), vehicle: saline) was 167 % of control, the T/C (dose: 128.0 mg/kg/injection, schedule: Q01DX001 (oral), vehicle: saline) was 150 % of control and the T/C (dose: 128.0 mg/kg/injection, schedule: Q01DX009 (oral), vehicle: saline) was 105 % of control. For the same compound, the T/C (dose: 128.0 mg/kg/injection, schedule: Q04DX003 (ip), vehicle: saline) was 176 % of control, the T/C (dose: 128.0 mg/kg/injection, schedule: Q04DX003 (oral), vehicle: saline) was 157 % of control and the T/C (dose: 128.0 mg/kg/injection, schedule: Q08DX002 (ip), vehicle: saline) was 167 % of control. The T/C (dose: 256.0 mg/kg/injection, schedule: Q01DX001 (ip), vehicle: saline) was 157 % of control, the T/C (dose: 256.0 mg/kg/injection, schedule: Q01DX009 (oral), vehicle: saline) was 88 % of control and the T/C (dose: 256.0 mg/kg/injection, schedule: Q08DX002 (ip), vehicle: saline) was 194 % of control. For the same compound, the T/C (dose: 256.0 mg/kg/injection, schedule: Q08DX002 (oral), vehicle: saline) was 156 % of control and the T/C (dose: 512.0 mg/kg/injection, schedule: Q08DX002 (oral), vehicle: saline) was 156 % of control.

With `CSc1ccc(NC(=O)C(O)C(O)C(O)C(O)CO)cc1` (stereo not drawn) the T/C (dose: 100.0 mg/kg/injection, schedule: Q01DX009 (ip), vehicle: saline) was 103 % of control, the T/C (dose: 200.0 mg/kg/injection, schedule: Q01DX009 (ip), vehicle: saline) was 113 % of control and the T/C (dose: 400.0 mg/kg/injection, schedule: Q01DX009 (ip), vehicle: saline) was 102 % of control.

In the case of `Oc1c(Cl)c(Cl)c(Cl)c(Cl)c1Cl` (tested in a mixture with another compound), the T/C [1] was 96 % of control, the T/C [3] was 103 % of control and the T/C [5] was 96 % of control.

In the case of `COc1ccc(/C=N/NC(N)=S)cc1`, the T/C (dose: 16.0 mg/kg/injection, schedule: Q01DX008 (iv), vehicle: saline) was 98 % of control, the T/C (dose: 32.0 mg/kg/injection, schedule: Q01DX008 (iv), vehicle: saline) was 100 % of control and the T/C [2] was 100 % of control and 109 % of control. The T/C (dose: 64.0 mg/kg/injection, schedule: Q01DX008 (iv), vehicle: saline) was 97 % of control, the T/C [4] was 98 % of control and the T/C (dose: 128.0 mg/kg/injection, schedule: Q01DX009 (ip), vehicle: saline) was 100 % of control and 109 % of control. The T/C (dose: 256.0 mg/kg/injection, schedule: Q01DX009 (ip), vehicle: saline) was 104 % of control and 112 % of control.

`O=C(c1ccccc1)C1(O)CCCCC1` was tested, and the T/C (dose: 50.0 mg/kg/injection, schedule: Q01DX009 (ip), vehicle: saline sonified) was 97 % of control, the T/C (dose: 100.0 mg/kg/injection, schedule: Q01DX009 (ip), vehicle: saline sonified) was 105 % of control and the T/C (dose: 200.0 mg/kg/injection, schedule: Q01DX009 (ip), vehicle: saline sonified) was 97 % of control.

In the case of `Nc1nc(N)c(-c2ccc(Cl)c(Cl)c2)c(CCc2ccc(NC(=O)Nc3ccc(S(=O)(=O)F)cc3)cc2)n1`, the T/C (dose: 50.0 mg/kg/injection, schedule: Q01DX001 (ip), vehicle: saline with Tween-80) was 91 % of control, the T/C [6] was 91 % of control and the T/C [7] was 94 % of control.

`CCOC1(C)OC2C(CO)OC(n3ccc4c(N)ncnc43)C2O1` (stereo not drawn) was tested, and the T/C (dose: 100.0 mg/kg/injection, schedule: Q01DX001 (ip), vehicle: saline) was 111 % of control.

With `O=C(O)CCn1c(=O)[nH]c(=O)n(CCC(=O)O)c1=O` the T/C [8] was 96 % of control, the T/C [9] was 113 % of control and the T/C [10] was 100 % of control. The T/C (dose: 200.0 mg/kg/injection, schedule: Q04DX003 (ip), vehicle: saline with Tween-80) was 101 % of control, the T/C [11] was 97 % of control and the T/C (dose: 400.0 mg/kg/injection, schedule: Q04DX003 (ip), vehicle: saline with Tween-80) was 98 % of control.

With `CCOC(=O)C(C)(C)Oc1nn(Cc2ccccc2)c2ccccc12` the T/C (dose: 25.0 mg/kg/injection, schedule: Q04DX003 (ip), vehicle: saline with Tween-80) was 104 % of control, the T/C (dose: 50.0 mg/kg/injection, schedule: Q04DX003 (ip), vehicle: saline with Tween-80) was 102 % of control and the T/C [9] was 102 % of control.

With `CCCc1cc(=O)n(CCCc2ccccc2)c(=O)n1CCCc1ccccc1` the T/C (dose: 100.0 mg/kg/injection, schedule: Q01DX001 (ip), vehicle: Klucel (hydroxypropylcellulose) (HPC)) was 103 % of control, the T/C (dose: 200.0 mg/kg/injection, schedule: Q01DX001 (ip), vehicle: Klucel (hydroxypropylcellulose) (HPC)) was 97 % of control and the T/C (dose: 400.0 mg/kg/injection, schedule: Q01DX001 (ip), vehicle: Klucel (hydroxypropylcellulose) (HPC)) was 90 % of control.

In the case of `O=C(C[n+]1cccc(C(=O)NCc2ccccc2)c1)NCc1ccccc1`, the T/C [1] was 103 % of control, the T/C [3] was 101 % of control and the T/C [5] was 98 % of control.

For `CC(C)(C)/C=N/Nc1ccc([N+](=O)[O-])cc1[N+](=O)[O-]`, the T/C (dose: 100.0 mg/kg/injection, schedule: Q04DX003 (ip), vehicle: acetone) was 97 % of control, the T/C (dose: 200.0 mg/kg/injection, schedule: Q04DX003 (ip), vehicle: acetone) was 101 % of control and the T/C (dose: 400.0 mg/kg/injection, schedule: Q04DX003 (ip), vehicle: acetone) was 97 % of control.

In the case of `CC(CCC(=O)O)C1CCC2C3CCC4CC(O)CCC4(C)C3CC(O)C12C` (stereo not drawn), the T/C [6] was 104 % of control and 94 % of control, the T/C [7] was 101 % of control and the T/C (dose: 400.0 mg/kg/injection, schedule: Q01DX001 (ip), vehicle: saline with Tween-80) was 92 % of control.

`CCOC(=O)C(CO)(NC(C)=O)C(=O)OCC` was tested, and the T/C [8] was 94 % of control, the T/C [10] was 98 % of control and the T/C [11] was 105 % of control.
